# “And” between values parts separate entries of the source, which are not always exact repeats. Identical values can stand only once.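 The compound was tested at five concentrations on cells cultured in 96-well plates, with a 48-hour exposure period. GI50 is the concentration that inhibits growth by half. Definition used: TGI = concentration required for complete inhibition of growth.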 Where a SMILES comes first, the peptide text is derived from it. The star is where a group is joined. Trt = c1ccc(C(c2ccccc2)(c2ccccc2)*)cc1; Cbz = O=C(OCc1ccccc1)*
# How the values were obtained:
# Assay in all cases: DTP human tumour cell line panel, 48 h
# [1] = test system: UACC-257 melanoma
# [2] = test system: K-562 leukemia
# [3] = test system: LOX IMVI melanoma
# [4] = test system: SNB-75 CNS
# [5] = test system: SF-295 CNS
# [6] = test system: KM12 colon
# [7] = test system: HCC-2998 colon
# [8] = test system: MALME-3M melanoma
# [9] = test system: SR leukemia
# [10] = test system: MDA-MB-435
Structure (SMILES),GI50 [1],TGI [1],GI50 [2],TGI [2],TGI [3],TGI [4],GI50 [5],TGI [5],GI50 [6],TGI [6],GI50 [7],TGI [7],GI50 [8],TGI [8],GI50 [9],TGI [9],GI50 [4],GI50 [3],GI50 [10],TGI [10]
Cc1c2ccncc2c(C)c2c1[nH]c1ccc(Cl)cc12,5.39 µM and 2.34 µM,12 µM and 12.8 µM,1.21 µM,3.67 µM and 3.79 µM,6 µM and 2.94 µM,10 µM and 12.7 µM,2.56 µM and 3.56 µM,8.38 µM and 15.3 µM,4.25 µM,5.7 µM and 18.9 µM,2.34 µM,19.3 µM and 13.9 µM,3.63 µM,14.3 µM and 15.2 µM,,,,,,
O=C(Nc1nc2ccccc2s1)c1cc(-c2ccc(F)cc2)n2nc(-c3ccccc3)cc2n1,,,4.25 µM,15.3 µM,,5.82 µM,4.11 µM,> 100 µM,,,> 100 µM,> 100 µM,3.74 µM,> 100 µM,3.93 µM,12.8 µM,1.75 µM,,,
CC(=O)NC(CCCN(Cc1ccccc1)C(=O)N(C)N=O)C(=O)NCc1ccccc1 (stereo not given),,> 100 µM,,> 100 µM,> 100 µM,91 µM,,> 100 µM,,> 100 µM,,> 100 µM,,> 100 µM,,,,,,
Cc1ccc2nc(NC(=O)C(=O)CC(=O)c3cccc4ccccc34)sc2c1,,82.2 µM,,> 100 µM,> 100 µM,36.5 µM,,48.4 µM,,> 100 µM,,> 100 µM,,70.2 µM,,,,,,
c1ccc(-c2ccnc3c2ccc2c(-c4ccccc4)ccnc23)cc1,,5.5 µM,,11.4 µM,14.8 µM,9.43 µM,,,,10.2 µM,,14.3 µM,,13.5 µM,,1.29 µM,,,,
O=C1C=Cc2ncccc2C1=O,,35.1 µM,,26.4 µM,26.9 µM,49.8 µM,,32.2 µM,,> 58.5 µM,,> 61.6 µM,,> 57.2 µM,,,,,,
[CH3][Sn]1([CH3])[O]CC(COc2cc(Cl)c(Cl)cc2Cl)[O]1 (stereo not given),99 µM,> 100 µM,> 100 µM,> 100 µM,> 100 µM,68.8 µM,38.8 µM,> 100 µM,45.8 µM,> 100 µM,62.5 µM,> 100 µM,> 100 µM,> 100 µM,,,23.1 µM,> 100 µM,,
COC(=O)C(CSC(c1ccccc1)(c1ccccc1)c1ccccc1)NC(=O)C(CC(N)=O)NC(=O)OCc1ccccc1 (stereo not drawn) (Cbz-Asn-Cys(Trt)-OMe; configuration not given here),8.92 µM,21.7 µM,3.16 µM,11.4 µM,3.51 µM,24.6 µM,2.96 µM,13.9 µM,4.62 µM,17 µM,2.03 µM,4.82 µM,2.21 µM,12.1 µM,,,5.43 µM,1.83 µM,2.13 µM,5.2 µM
COc1ccc(C(=O)c2cc3c(N)c(C(=O)Nc4cccc(OC)c4)sc3nc2C)cc1,> 100 µM,> 100 µM,0.378 µM,> 100 µM,> 100 µM,> 100 µM,0.601 µM,> 100 µM,0.568 µM,> 100 µM,2.2 µM,> 100 µM,0.593 µM,> 100 µM,0.203 µM,,0.541 µM,0.676 µM,,
COC(=O)C(C(=O)C(N)=O)c1csc(-n2nc(-c3ccccc3)cc2-c2ccccc2)n1 (stereo not given),,> 31.6 µM,,> 31.6 µM,> 100 µM,> 31.6 µM,,> 100 µM,,> 31.6 µM,,> 31.6 µM,,> 31.6 µM,,,,,,
C/C(=N\NS(=O)(=O)c1ccc([N+](=O)[O-])cc1)c1ccc[n+]([O-])n1,,14.6 µM,,> 65.4 µM,2.15 µM,5.36 µM,,7.05 µM,,33.8 µM,,22.3 µM,,9.45 µM,,49 µM,,,,
N#CC(C(=O)CCCC(=O)Nc1ccc(Cl)cc1Cl)c1ccc(Cl)cc1 (stereo not given),,> 100 µM,,> 100 µM,> 100 µM,> 100 µM,,> 100 µM,,> 100 µM,,> 100 µM,,> 100 µM,,> 100 µM,,,,
Cn1nc(-c2ccccc2)c(C(=O)/C=C/c2ccc(Cl)cc2)c(N2CCCC2)c1=O,,,,9.06 µM,39.2 µM,,,11.6 µM,,,,,,,,,,,,
CN=C(N)N/N=C(\C)c1ccc2c(c1)Cc1ccccc1-2,1.96 µM,3.74 µM,1.28 µM,2.69 µM,,7.01 µM,1.9 µM,4.32 µM,1.72 µM,3.47 µM,1.67 µM,3.09 µM,1.51 µM,3.02 µM,,,2 µM,,1.64 µM,3.15 µM
COc1ccc2c(c1)/C(=N/OC(C)=O)c1c-2cnc2ccccc12,61.1 µM,> 100 µM,24.4 µM,73.1 µM,38.6 µM,> 100 µM,,,25 µM,78.7 µM,39.1 µM,> 100 µM,16.2 µM,39.1 µM,13.8 µM,38 µM,37.4 µM,19 µM,,
O=C(/C=C/C1C(=O)NC(=O)NC1=O)CC(=O)C(=O)Nc1cc(Cl)c(Cl)cc1Cl,,> 100 µM,,> 100 µM,> 100 µM,> 100 µM,,> 100 µM,,> 100 µM,,> 100 µM,,> 100 µM,,> 100 µM,,,,
COc1ccc(-c2nc(C(=O)c3ccccc3)n(CC(=O)c3ccc(Cl)cc3)c2-c2ccc(OC)cc2)cc1,> 100 µM,> 100 µM,> 100 µM,> 100 µM,> 100 µM,> 100 µM,> 100 µM,> 100 µM,> 100 µM,> 100 µM,> 100 µM,> 100 µM,> 100 µM,> 100 µM,,,> 100 µM,> 100 µM,> 100 µM,> 100 µM
CC1=CC(=O)NP(=O)(C23CC4CC(CC(C4)C2)C3)N1 (stereo not given),,> 100 µM,,> 100 µM,> 100 µM,> 100 µM,,> 100 µM,,> 100 µM,,,,> 100 µM,,> 100 µM,,,,

# Source: PubChem BioAssay (NCI)
